# Tests used:
# DNA gyrase [1] = biological target: DNA gyrase (Escherichia coli, UniProt P0AES4+P0AES6); experiment: Inhibition of Escherichia coli DNA gyrase by supercoiling plate assay; type: protein-complex assay
# MCF7 = experiment: Cytotoxicity against human MCF7 cells assessed as cell viability at 50 uM incubated for 72 hrs by CellTiter 96 aqueous one solution reagent based MTS assay relative to control; type: functional; settings: read-out: Activity
# [2] = Metabolic stability in mouse liver microsomes assessed as intrinsic clearance at 1 uM preincubated for 10 mins followed by NADPH addition and measured after 5 to 60 mins by LC-MS/MS analysis; type: ADME, Microsome; settings: time 15-70 min, read-out: CLH
# Escherichia coli [3] = experiment: Antibacterial activity against Escherichia coli ATCC 25922 assessed as inhibition of bacterial growth by broth microdilution method; type: functional
# [4] = Metabolic stability in human liver microsomes assessed as intrinsic clearance at 1 uM preincubated for 10 mins followed by NADPH addition and measured after 5 to 60 mins by LC-MS/MS analysis; type: ADME, Microsome; settings: time 15-70 min, read-out: CLH
# [5] = biological target: T1, DNA topoisomerase 2-alpha (Homo sapiens, UniProt P11388); experiment: Inhibition of human DNA topoisomerase 2-alpha using linear pBR322 as substrate assessed as conversion of NADH to NAD+ by measuring residual activity at 100 uM preincubated for 10 to 15 mins in presence of pyruvate kinase/lactate dehydrogenase mix followed by ATP addition and measured after 30 mins by ATPase assay relative to control; settings: time 40-55 min
# Enterococcus faecium = experiment: Antibacterial activity against vancomycin-resistant Enterococcus faecium ATCC 700221 assessed as inhibition of bacterial growth by broth microdilution method; type: functional
# Klebsiella pneumoniae = experiment: Antibacterial activity against Klebsiella pneumoniae ATCC 10031 assessed as inhibition of bacterial growth by broth microdilution method; type: functional
# Pseudomonas aeruginosa = experiment: Antibacterial activity against Pseudomonas aeruginosa ATCC 27853 assessed as inhibition of bacterial growth by broth microdilution metho; type: functional
# Staphylococcus aureus [6] = experiment: Antibacterial against methicillin resistant Staphylococcus aureus ATCC 43300 assessed as inhibition of bacterial growth by broth microdilution method; type: functional; settings: time 24 hrs
# Staphylococcus aureus [7] = experiment: Antibacterial activity against Staphylococcus aureus ATCC 29213 assessed as inhibition of bacterial growth by broth microdilution method; type: functional
# Escherichia coli [8] = experiment: Inhibition of Escherichia coli DNA topoisomerase-IV assessed as residual activity at 10 uM by relaxation plate assay relative to control
# Staphylococcus aureus [9] = experiment: Antibacterial against vancomycin-intermediate Staphylococcus aureus ATCC 700699 assessed as inhibition of bacterial growth by broth dilution method; type: functional
# [10] = Metabolic stability in human liver microsomes assessed as half life at 1 uM preincubated for 10 mins followed by NADPH addition and measured after 5 to 60 mins by LC-MS/MS analysis; type: ADME, Microsome; settings: time 15-70 min
# Enterobacter cloacae = experiment: Antibacterial activity against Enterobacter cloacae subsp. cloacae ATCC 13047 assessed as inhibition of bacterial growth by broth microdilution method; type: functional
# Acinetobacter baumannii = experiment: Antibacterial activity against Acinetobacter baumannii ATCC 17978 assessed as inhibition of bacterial growth by broth microdilution method; type: functional
# [11] = Metabolic stability in mouse liver microsomes assessed as half life at 1 uM preincubated for 10 mins followed by NADPH addition and measured after 5 to 60 mins by LC-MS/MS analysis; type: ADME, Microsome; settings: time 15-70 min
# Enterococcus faecalis = experiment: Antibacterial activity against Enterococcus faecalis ATCC 29212 assessed as inhibition of bacterial growth by broth microdilution method; type: functional
# DNA gyrase [12] = biological target: DNA gyrase (Staphylococcus aureus, UniProt P0A0K8+P20831); experiment: Inhibition of Staphylococcus aureus DNA gyrase by supercoiling plate assay; type: protein-complex assay
# [13] = Inhibition of Escherichia coli DNA topoisomerase-IV relaxation plate assay
# [14] = biological target: T1, DNA topoisomerase 2-alpha; experiment: Inhibition of human DNA topoisomerase 2-alpha using linear pBR322 as substrate assessed as conversion of NADH to NAD+ preincubated for 10 to 15 mins in presence of pyruvate kinase/lactate dehydrogenase mix followed by ATP addition and measured after 30 mins by ATPase assay
# Escherichia coli [15] = experiment: Inhibition of Escherichia coli DNA topoisomerase-IV assessed as residual activity at 1 uM by relaxation plate assay relative to control
# Chain of DNA gyrase (Staphylococcus aureus, UniProt P0A0K8+P20831) (P0A0K8 whole entry): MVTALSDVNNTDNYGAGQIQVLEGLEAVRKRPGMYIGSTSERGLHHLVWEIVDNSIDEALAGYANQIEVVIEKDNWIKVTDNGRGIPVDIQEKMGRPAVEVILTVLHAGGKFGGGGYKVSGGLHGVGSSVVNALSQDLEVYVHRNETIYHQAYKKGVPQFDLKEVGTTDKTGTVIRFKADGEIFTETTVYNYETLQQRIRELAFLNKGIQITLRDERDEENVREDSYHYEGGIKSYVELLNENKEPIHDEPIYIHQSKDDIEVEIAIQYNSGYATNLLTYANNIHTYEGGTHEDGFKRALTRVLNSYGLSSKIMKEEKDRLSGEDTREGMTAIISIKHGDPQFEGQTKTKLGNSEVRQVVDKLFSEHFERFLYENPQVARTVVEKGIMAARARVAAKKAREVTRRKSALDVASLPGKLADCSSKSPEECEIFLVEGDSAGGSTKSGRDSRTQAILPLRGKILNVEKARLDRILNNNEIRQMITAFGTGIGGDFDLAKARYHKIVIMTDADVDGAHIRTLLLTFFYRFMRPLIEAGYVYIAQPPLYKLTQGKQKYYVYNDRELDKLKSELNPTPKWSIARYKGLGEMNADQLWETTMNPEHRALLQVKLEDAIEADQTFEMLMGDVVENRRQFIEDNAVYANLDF
# Chain of DNA gyrase (Staphylococcus aureus, UniProt P0A0K8+P20831) (P20831 whole entry): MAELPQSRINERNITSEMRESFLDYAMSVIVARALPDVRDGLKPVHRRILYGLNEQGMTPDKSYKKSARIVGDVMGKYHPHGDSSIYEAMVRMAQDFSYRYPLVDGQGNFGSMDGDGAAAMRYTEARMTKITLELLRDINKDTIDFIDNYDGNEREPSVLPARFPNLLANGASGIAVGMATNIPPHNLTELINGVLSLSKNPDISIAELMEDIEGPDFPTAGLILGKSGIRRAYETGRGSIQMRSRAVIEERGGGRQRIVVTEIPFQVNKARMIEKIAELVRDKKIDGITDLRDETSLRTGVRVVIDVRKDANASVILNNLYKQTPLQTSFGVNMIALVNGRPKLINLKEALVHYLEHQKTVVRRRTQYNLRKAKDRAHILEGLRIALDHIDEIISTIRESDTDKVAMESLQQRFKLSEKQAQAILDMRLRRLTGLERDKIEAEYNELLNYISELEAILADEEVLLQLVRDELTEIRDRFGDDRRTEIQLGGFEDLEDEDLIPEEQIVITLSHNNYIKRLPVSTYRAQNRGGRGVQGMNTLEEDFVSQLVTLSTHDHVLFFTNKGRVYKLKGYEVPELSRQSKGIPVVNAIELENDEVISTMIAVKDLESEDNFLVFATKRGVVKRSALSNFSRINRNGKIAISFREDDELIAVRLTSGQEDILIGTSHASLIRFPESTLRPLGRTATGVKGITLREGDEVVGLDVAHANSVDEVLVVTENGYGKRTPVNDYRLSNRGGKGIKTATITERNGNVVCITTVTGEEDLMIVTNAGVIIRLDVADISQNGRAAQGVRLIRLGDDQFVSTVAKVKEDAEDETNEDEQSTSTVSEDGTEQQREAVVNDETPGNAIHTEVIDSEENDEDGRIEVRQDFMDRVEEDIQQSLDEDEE
# T1 sequence (P11388 whole entry): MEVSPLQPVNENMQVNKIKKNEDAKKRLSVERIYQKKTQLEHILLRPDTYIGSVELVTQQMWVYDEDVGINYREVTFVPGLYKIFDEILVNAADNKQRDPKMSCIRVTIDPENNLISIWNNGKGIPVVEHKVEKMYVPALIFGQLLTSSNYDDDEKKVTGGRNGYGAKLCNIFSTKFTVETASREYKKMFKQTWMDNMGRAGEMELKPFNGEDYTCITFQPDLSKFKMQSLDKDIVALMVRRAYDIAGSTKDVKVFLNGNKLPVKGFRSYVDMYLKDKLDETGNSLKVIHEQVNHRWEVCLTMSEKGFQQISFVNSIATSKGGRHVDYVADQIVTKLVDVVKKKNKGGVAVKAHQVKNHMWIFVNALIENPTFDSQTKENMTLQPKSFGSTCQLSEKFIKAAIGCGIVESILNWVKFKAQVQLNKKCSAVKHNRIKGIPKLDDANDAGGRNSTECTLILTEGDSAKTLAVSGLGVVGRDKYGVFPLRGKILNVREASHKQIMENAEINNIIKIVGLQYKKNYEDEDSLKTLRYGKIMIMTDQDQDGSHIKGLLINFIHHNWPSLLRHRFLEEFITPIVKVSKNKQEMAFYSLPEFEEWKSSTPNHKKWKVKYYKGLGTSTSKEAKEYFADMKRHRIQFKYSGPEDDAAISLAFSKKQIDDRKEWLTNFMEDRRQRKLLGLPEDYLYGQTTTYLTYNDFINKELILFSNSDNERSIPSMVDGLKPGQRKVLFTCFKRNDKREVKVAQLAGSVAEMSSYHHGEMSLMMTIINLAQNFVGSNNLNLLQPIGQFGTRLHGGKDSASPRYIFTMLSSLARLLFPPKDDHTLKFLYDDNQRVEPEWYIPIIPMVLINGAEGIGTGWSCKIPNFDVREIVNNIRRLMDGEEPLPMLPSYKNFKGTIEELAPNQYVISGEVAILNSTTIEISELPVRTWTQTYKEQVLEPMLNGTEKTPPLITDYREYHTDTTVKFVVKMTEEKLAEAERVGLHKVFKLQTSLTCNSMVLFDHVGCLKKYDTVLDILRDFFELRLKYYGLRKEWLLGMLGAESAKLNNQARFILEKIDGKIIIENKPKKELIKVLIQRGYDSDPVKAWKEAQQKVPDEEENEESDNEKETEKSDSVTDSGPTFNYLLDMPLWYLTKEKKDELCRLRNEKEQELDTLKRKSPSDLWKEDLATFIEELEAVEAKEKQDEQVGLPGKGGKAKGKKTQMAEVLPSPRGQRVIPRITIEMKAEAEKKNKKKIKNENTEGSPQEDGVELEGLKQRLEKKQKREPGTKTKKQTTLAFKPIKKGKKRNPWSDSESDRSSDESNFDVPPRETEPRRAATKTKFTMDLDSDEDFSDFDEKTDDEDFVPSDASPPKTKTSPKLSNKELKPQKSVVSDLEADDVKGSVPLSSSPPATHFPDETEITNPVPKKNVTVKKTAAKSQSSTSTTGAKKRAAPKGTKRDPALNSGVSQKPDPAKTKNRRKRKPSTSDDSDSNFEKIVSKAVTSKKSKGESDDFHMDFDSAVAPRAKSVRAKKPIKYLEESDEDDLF
SMILES,IC50 (DNA gyrase [1]) [nM],viability at 50 µM (MCF7) [%],microsomal CLint at 1 µM [2] [µL/min/mg],MIC (Escherichia coli [3]) [µg/mL],microsomal CLint at 1 µM [4] [µL/min/mg],Activity [5] [%],MIC (Enterococcus faecium) [µg/mL],MIC (Klebsiella pneumoniae) [µg/mL],MIC (Pseudomonas aeruginosa) [µg/mL],MIC (Staphylococcus aureus [6]) [µg/mL],MIC (Staphylococcus aureus [7]) [µg/mL],Activity (Escherichia coli [8]) [%],MIC (Staphylococcus aureus [9]) [µg/mL],MIC (Enterobacter cloacae) [µg/mL],MIC (Acinetobacter baumannii) [µg/mL],half-life at 1 µM [11] [h],MIC (Enterococcus faecalis) [µg/mL],IC50 (DNA gyrase [12]) [nM],IC50 [13] [nM],further results
Cc1[nH]c(C(=O)Nc2ccc(-c3noc(=O)[nH]3)cc2N2CCN(c3ccccc3)CC2)c(Cl)c1Cl,109,68,< 9.6,> 64,< 9.6,98,4,> 64,> 64,0.063,4,71,2,> 64,> 64,> 2.42,0.125,–,–,half-life at 1 µM [10]: > 2.42 h
Cc1[nH]c(C(=O)Nc2ccc(-c3noc(=O)[nH]3)cc2NC2CCNCC2)c(Cl)c1Cl.Cl,9.66,–,–,> 64,–,101,> 64,> 64,> 64,> 64,> 64,–,> 64,> 64,> 64,–,> 64,249,1180,–
Cc1[nH]c(C(=O)Nc2ccc(-n3nn[nH]c3=O)cc2N2CC[C@H](N)C2)c(Cl)c1Cl.Cl,4.9,–,–,> 32,–,108,> 32,> 32,> 32,> 32,> 32,26,64,> 32,> 32,–,64,121,–,–
Cc1[nH]c(C(=O)Nc2ccc(-c3noc(=O)[nH]3)cc2N2CCC(N)CC2)c(Cl)c1Cl.Cl,0.253,–,–,> 64,–,–,32,64,> 64,32,64,–,16,> 64,> 64,–,32,–,187,IC50 [14]: 26200 nM
Cc1[nH]c(C(=O)Nc2ccc(-n3nn[nH]c3=O)cc2N2CCC(N)CC2)c(Cl)c1Cl.Cl,3.96,–,–,> 32,–,103,> 32,> 32,> 32,> 32,> 32,–,> 32,> 32,> 32,–,> 32,216,11500,–
C[C@]12CC[C@H]3[C@@H](CCC4=CC(=O)CC[C@@]43C)[C@@H]1CC[C@@H]2O [TESTOSTERONE],–,–,169,–,60.9,–,–,–,–,–,–,–,–,–,–,0.137,–,–,–,half-life at 1 µM [10]: 0.378 h
Cc1[nH]c(C(=O)Nc2ccc(-c3noc(=O)[nH]3)cc2N2CCC(NC(=O)OC(C)(C)C)CC2)c(Cl)c1Cl,6.7,44,–,> 64,–,30,0.5,> 64,> 64,0.5,> 64,–,0.063,> 64,> 64,–,< 0.031,–,–,half-life at 1 µM [10]: 1.27 h; Activity (Escherichia coli [15]): 62%
Cc1[nH]c(C(=O)Nc2ccc(-c3nnn[nH]3)cc2N2CCCC(CN)C2)c(Cl)c1Cl.Cl (configuration not stated),2.16,117,–,> 64,–,91,16,64,> 64,> 64,16,–,> 64,> 64,> 64,–,8,35,60.3,–
Cc1[nH]c(C(=O)Nc2ccc(-c3noc(=O)[nH]3)cc2N2CCCC2)c(Cl)c1Cl,12.6,119,11,> 64,17.6,99,0.063,> 64,> 64,0.5,> 64,–,< 0.031,> 64,> 64,2.1,< 0.031,–,2410,half-life at 1 µM [10]: 1.31 h
Cc1[nH]c(C(=O)Nc2ccc(-c3noc(=O)[nH]3)cc2N2CCCC(CN)C2)c(Cl)c1Cl.Cl (configuration not stated),3.19,88,–,> 64,–,93,2,2,> 64,4,4,–,2,> 64,> 64,–,0.25,24.1,41.8,–
Cc1[nH]c(C(=O)Nc2ccc(-n3nn[nH]c3=O)cc2N2CC[C@H](NC(=O)OC(C)(C)C)C2)c(Cl)c1Cl,212,–,–,–,–,95,–,–,–,–,–,72,–,–,–,–,–,–,–,–
O=C(O)Cc1ccccc1Nc1c(Cl)cccc1Cl [DICLOFENAC],–,–,28.4,–,238,–,–,–,–,–,–,–,–,–,–,0.813,–,–,–,–
Cc1[nH]c(C(=O)Nc2ccc(-c3nnn[nH]3)cc2N2CCOCC2)c(Cl)c1Cl,44.5,–,–,> 64,–,–,> 64,> 64,> 64,> 64,> 64,–,–,> 64,> 64,–,–,–,–,IC50 [14]: 39200 nM; Activity (Escherichia coli [15]): 77%
Cc1[nH]c(C(=O)Nc2ccc(-c3noc(=O)[nH]3)cc2N2CCNCC2)c(Cl)c1Cl.Cl,6.07,–,–,> 64,–,101,> 64,> 64,> 64,> 64,> 64,–,> 64,> 64,> 64,–,> 64,–,3150,–
Cc1[nH]c(C(=O)Nc2ccc(-c3noc(=O)[nH]3)cc2N2CCCC(N)C2)c(Cl)c1Cl.Cl (configuration not stated),2.49,95,–,> 64,–,91,8,16,> 64,> 64,> 64,–,> 64,> 64,> 64,–,8,55.8,145,–
Cc1[nH]c(C(=O)Nc2ccc(-n3nn[nH]c3=O)cc2N2CCN(c3ccccc3)CC2)c(Cl)c1Cl,7.8,58,–,> 32,–,–,0.5,> 32,> 32,> 32,> 32,104,0.5,> 32,> 32,–,0.5,–,–,IC50 [14]: 33600 nM
Cc1[nH]c(C(=O)Nc2ccc(C(=O)NS(C)(=O)=O)cc2N2CCOCC2)c(Cl)c1Cl,243,–,–,–,–,94,–,–,–,–,–,37,–,–,–,–,–,–,–,–
Cc1[nH]c(C(=O)Nc2ccc(-c3noc(=O)[nH]3)cc2N2CCN(C(=O)OC(C)(C)C)CC2)c(Cl)c1Cl,13.7,78,< 9.6,> 64,18.2,95,0.25,> 64,> 64,> 64,> 64,–,< 0.031,> 64,> 64,> 2.42,< 0.031,–,–,Activity (Escherichia coli [15]): 71%
Cc1[nH]c(C(=O)Nc2ccc(-n3nn[nH]c3=O)cc2N2Cc3ccccc3C2)c(Cl)c1Cl,111,89,< 9.6,> 64,17.3,97,0.5,> 64,> 64,> 64,16,105,> 64,> 64,> 64,> 2.42,0.25,–,–,half-life at 1 µM [10]: 1.33 h

# From ChEMBL document CHEMBL6071157, “Improved N-phenylpyrrolamide inhibitors of DNA gyrase as antibacterial agents for high-priority bacterial strains” (Eur J Med Chem, 2024)
